Test results: patent US10232023B2, “Methods for treatment of and prophylaxis against inflammatory disorders” (THE UNIVERSITY OF UTAH RESEARCH FOUNDATION, priority 2013, dated 2019)
“Also recorded” adds a separate entry of the source.

What was measured:
[1] = system: human PMNs incubated with dengue virus; assay: Dengue virus-induced NET formation by human PMNs; type: cell-based; details: pretreatment 1 nM, 1 hour; dengue virus 0.05 MOI
Experimental: Mock incubation using dengue virus media without infection served as a control. Dengue virus induced NET formation by PMNs from human adults.
Primary PMNs isolated from healthy adults (2×10^6 cells/mL) were incubated with mock infection buffer or live dengue virus (MOI 0.05), as for the live cell imaging discussed above. After a 1 hour incubation, the infected PMNs were fixed with 2% p-FA for 10 minutes prior to incubation with fluorescently-labeled, cell permeable and cell impermeable DNA dyes, and imaged as for live cell imaging using confocal microscopy.

[2] = system: outbred Swiss mice, murine CL/P model; assay: Survival in cecal ligation and puncture (CL/P) model; type: in vivo, mouse; details: 10 mcg/kg IP, 1 hour prior and 6 hours after surgery, vs CL/P control, p=0.06
Experimental: FIG. 11 is a graph tracking survival of outbred Swiss mice in various treatment arms of a murine CL/P model. CRISPP treated mice (10 mcg/kg) received 2 doses intraperitoneally; one given 1 hour prior to surgery or sham surgery and one dose given 6 hours after surgery. The same dose, delivery route, and schedule were followed for the scrambled peptide control mice. Ten mice were assessed in each of the CL/P groups.
Survival of outbred Swiss mice was tracked in various treatment arms following intraperitoneal injection of either LPS (20 mg/kg) or E. coli (4×10^7 bacteria), as shown in FIGS. 10A and 10B. […] Six mice were assessed in both groups: LPS+CRISPP and LPS+scrambled control peptide. […] Ten mice were assessed in each group: no treatment, E. coli+CRISPP, and E. coli+scrambled control peptide. […] Referring to FIG. 11, CRISPP was also evaluated in a murine model of polymicrobial infection caused by cecal ligation and puncture (CL/P). […] Ten mice were assessed in each of the CL/P groups. […]
Animals were treated with CRISPP (10 mg/kg), nNIF (10 mg/kg), or SCR (10 mg/kg) by i.p. injection 1 hour prior to and 6 hours after infection (E. coli, 4.5×10^7 cfu/mouse, i.p. injection) or stimulation (LPS, 25 mg/kg, i.p. injection). […] Survival was assessed over 6 days at 6 hour to 12 hour intervals.

Cancer-Associated SCM-Recognition, Immune Defense Suppression, and Serine Protease Protection Peptide [CRISPP, nNIF-related peptide (nNRP)]
NET formation induced by dengue virus [1]: completely blocked NET formation; also recorded: inhibited NET formation | Survival [2]: approached statistical significance
